This data set concerns rodent carcinogenicity bioassays, tumor incidence. The data set can be described thus: CCRIS carcinogenicity studies. Put shortly: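 NCI-built, expert-reviewed records of carcinogenicity and related test outcomes (mutagenicity, tumor promotion/inhibition) compiled from published and report sources, historical span 1985-2011, not updated.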

The structures appear in SMILES notation. Calls of active or inactive are those of the source. The rule behind the calls is not given here.

`Nc1nc(N)c2nc(-c3ccccc3)c(N)nc2n1`: the carcinogen call is, setting by setting: (Species: MOUSE, Strain/Sex: B6C3F1/FEMALE, Route: ORAL, Dose: 0, 100, 200, 400 PPM IN FEED FOR 104 WK (STUDY DURATION: 2 YR), Dose: 0, 100, 200, 400 PPM IN FEED FOR 104 WK (STUDY DURATION: 2 YR), Tumor Site: Type of Lesion: LIVER: HEPATOCELLULAR ADENOMA) “active; positive”; (Species: MOUSE, Strain/Sex: B6C3F1/FEMALE, Route: ORAL, Dose: 0, 400 PPM IN FEED FOR 104 WK (STUDY DURATION: 2 YR), Tumor Site: Type of Lesion: LIVER: HEPATOCELLULAR ADENOMA) “active; positive”; (Species: MOUSE, Strain/Sex: B6C3F1/MALE, Route: ORAL, Dose: 0, 100, 200, 400 PPM IN FEED FOR 104 WK (STUDY DURATION: 2 YR), Dose: 0, 100, 200, 400 PPM IN FEED FOR 104 WK (STUDY DURATION: 2 YR), Tumor Site: Type of Lesion: LIVER: HEPATOCELLULAR CARCINOMA) “active; positive”; (Species: MOUSE, Strain/Sex: B6C3F1/MALE, Route: ORAL, Dose: 0, 400 PPM IN FEED FOR 104 WK (STUDY DURATION: 2 YR), Tumor Site: Type of Lesion: LIVER: HEPATOCELLULAR ADENOMA) “active; positive”; (Species: RAT, Strain/Sex: F344/FEMALE, Route: ORAL, Dose: 0, 150, 300, 600 PPM IN FEED FOR 104 WK (STUDY DURATION: 2 YR), Dose: 0, 150, 300, 600 PPM IN FEED FOR 104 WK (STUDY DURATION: 2 YR)) “inactive; negative”; (Species: RAT, Strain/Sex: F344/MALE, Route: ORAL, Dose: 0, 150, 300, 600 PPM IN FEED FOR 104 WK (STUDY DURATION: 105 WK), Dose: 0, 150, 300, 600 PPM IN FEED FOR 104 WK (STUDY DURATION: 105 WK), Tumor Site: Type of Lesion: LIVER: ADENOMA) “equivocal”.

`C[C@]12CC[C@@H]3c4ccc(OC(=O)c5ccccc5)cc4CC[C@H]3[C@@H]1CC[C@@H]2O`: the carcinogen call is “active; positive” (Species: MOUSE, Route: SUBCUTANEOUS, Tumor Site: Type of Lesion: TESTES, PITUITARY GLAND, CERVIX, UTERUS, Tumor Site: Type of Lesion: TESTES, PITUITARY GLAND, CERVIX, UTERUS) and “active; positive” (Species: RAT, Route: SUBCUTANEOUS IMPLANT, Tumor Site: Type of Lesion: PITUITARY GLAND).

Turning to `C/C=C1/C[C@@H](C)[C@@](C)(O)C(=O)OC/C2=C/CN(C)CC[C@@H](OC1=O)C2=O`, the carcinogen call (Species: RAT, Strain/Sex: ACI/MALE, Route: INTRAPERITONEAL, Dose: 22 MG/KG IN SALINE 2/WK FOR 4 WK, THEN 1/WK FOR 52 WK, Tumor Site: Type of Lesion: LIVER: ADENOMA) was “active; positive”.

For `CCCCCCCCCCCCCC(=O)O[C@@H]1[C@@H](C)[C@@]2(O)[C@@H](C=C(CO)C[C@]3(O)C(=O)C(C)=C[C@@H]23)[C@@H]2C(C)(C)[C@]12OC(C)=O`, the carcinogen call (Species: MOUSE, Strain/Sex: BALB/MALE, FEMALE, Route: DERMAL, Dose: 0, 18 NMOL IN ACETONE 1/WK FOR 17 MO (STUDY DURATION: 24 MO), Tumor Site: Type of Lesion: SKIN: SQUAMOUS CELL PAPILLOMA) is “active; positive”; the carcinogen call (Species: MOUSE, Strain/Sex: HR-HR/MALE, FEMALE, Route: DERMAL, Dose: 0, 18 NMOL IN ACETONE 1/WK FOR 18 MO (STUDY DURATION: 24 MO)) is “inactive; negative”; the carcinogen call (Species: MOUSE, Strain/Sex: HR/HR/MALE, FEMALE, Route: DERMAL, Dose: 0, 20, 40, 100, 1000, 1200, 1394 NMOL TOTAL DOSE WITH RESPECTIVE ADMINISTRATIONS OF 20 NMOL ONCE, 2 NMOL TWICE, 20 NMOL, Dose: 0, 20, 40, 100, 1000, 1200, 1394 NMOL TOTAL DOSE WITH RESPECTIVE ADMINISTRATIONS OF 20 NMOL ONCE, 2 NMOL TWICE, 20 NMOL, Tumor Site: Type of Lesion: SKIN: TUMOR) was “active; positive”.

For `C=CN(CC)N=O`, the carcinogen call was “active; positive” (Species: HAMSTER, Strain/Sex: SYRIAN/FEMALE, Route: SUBCUTANEOUS, Dose: 0.63-5 MG/KG IN OLIVE OIL 1/WK FOR LIFE, Tumor Site: Type of Lesion: NASAL CAVITY: PAPILLOMA, EPIDERMOID CARCINOMA, ADENOCARCINOMA, LARYNX: PAPILLOMA, EPIDERMOID CARCINOMA, TRACHEA: PAPILLO, Tumor Site: Type of Lesion: NASAL CAVITY: PAPILLOMA, EPIDERMOID CARCINOMA, ADENOCARCINOMA, LARYNX: PAPILLOMA, EPIDERMOID CARCINOMA, TRACHEA: PAPILLO); “active; positive” (Species: HAMSTER, Strain/Sex: SYRIAN/MALE, Route: SUBCUTANEOUS, Dose: 0.63-5 MG/KG IN OLIVE OIL 1/WK FOR LIFE, Tumor Site: Type of Lesion: NASAL CAVITY: PAPILLOMA, EPIDERMOID CARCINOMA, ADENOCARCINOMA, LARYNX: PAPILLOMA, EPIDERMOID CARCINOMA, TRACHEA: PAPILLO, Tumor Site: Type of Lesion: NASAL CAVITY: PAPILLOMA, EPIDERMOID CARCINOMA, ADENOCARCINOMA, LARYNX: PAPILLOMA, EPIDERMOID CARCINOMA, TRACHEA: PAPILLO); “active; positive” (Species: RAT, Route: INTRAVENOUS, Dose: 10.0 MG/KG 1/WK(MEAN TOTAL DOSE 0.25 G/KG), Tumor Site: Type of Lesion: ESOPHAGUS); “active; positive” (Species: RAT, Route: ORAL, Dose: 1.30, 2.50 MG/KG 7/WK (MEAN TOTAL DOSE 0.23; 0.42 G/KG), Dose: 1.30, 2.50 MG/KG 7/WK (MEAN TOTAL DOSE 0.23; 0.42 G/KG), Tumor Site: Type of Lesion: ESOPHAGUS).

For `Nc1cc2c3c(ccc2c2ccccc12)[C@H](O)[C@@H](O)C=C3`, the carcinogen call is, setting by setting: (Species: MOUSE, Strain/Sex: SWISS/FEMALE, Route: INTRAPERITONEAL, Dose: 0, 100 NMOL (TOTAL DOSE) 1/7, 2/7 AND 4/7 ADMINISTERED ON DAYS 1, 8 AND 15 OF LIFE RESPECTIVELY (STUDY DURATION: 32 WK), Tumor Site: Type of Lesion: LUNG: TUMOR) “active; positive”; (Species: MOUSE, Strain/Sex: SWISS/MALE, Route: INTRAPERITONEAL, Dose: 0, 100 NMOL (TOTAL DOSE) 1/7, 2/7 AND 4/7 ADMINISTERED ON DAYS 1, 8 AND 15 OF LIFE RESPECTIVELY (STUDY DURATION: 32 WK), Tumor Site: Type of Lesion: LUNG: TUMOR, LIVER: TUMOR) “active; positive”.

As for `[Be+2]`, for the setting “Species: RAT, Strain/Sex: WISTAR/FEMALE, Route: INTRATRACHEAL, Dose: 50 UG THEN 25 UG AFTER 10 MO, Tumor Site: Type of Lesion: LUNG: ADENOMA, ADENOCARCINOMA, ALVEOLAR/BRONCHIOLAR TUMOR”, the carcinogen call is “active; positive”.

As for `O=C(c1ccccc1)C(O)c1ccccc1` (stereo not drawn), the carcinogen call by setting is: (Species: MOUSE, Strain/Sex: B6C3F1/FEMALE, Route: ORAL, Dose: 0, 2500, 5000 PPM IN DIET, Dose: 0, 2500, 5000 PPM IN DIET) “inactive; negative”; (Species: MOUSE, Strain/Sex: B6C3F1/MALE, Route: ORAL, Dose: 0, 2500, 5000 PPM IN DIET, Dose: 0, 2500, 5000 PPM IN DIET) “inactive; negative”; (Species: RAT, Strain/Sex: F344/FEMALE, Route: ORAL, Dose: 0, 250, 500 PPM IN DIET, Dose: 0, 250, 500 PPM IN DIET) “inactive; negative”; (Species: RAT, Strain/Sex: F344/MALE, Route: ORAL, Dose: 0, 125, 250 PPM IN DIET, Dose: 0, 125, 250 PPM IN DIET) “inactive; negative”.

Consider `CC(C)(C)Br`, for which the carcinogen call (Species: MOUSE, Route: INTRAPERITONEAL, Tumor Site: Type of Lesion: LUNG) is “active; positive”.

With `Clc1ccccc1Cl`, the carcinogen call was “inactive; negative” (Species: MOUSE, Strain/Sex: B6C3F1/FEMALE, Route: GAVAGE, Dose: 0, 60, 120 MG/KG BODY WT IN CORN OIL 5 D/WK FOR 103 WK, Dose: 0, 60, 120 MG/KG BODY WT IN CORN OIL 5 D/WK FOR 103 WK); “inactive; negative” (Species: MOUSE, Strain/Sex: B6C3F1/MALE, Route: GAVAGE, Dose: 0, 60, 120 MG/KG BODY WT IN CORN OIL 5 D/WK FOR 103 WK, Dose: 0, 60, 120 MG/KG BODY WT IN CORN OIL 5 D/WK FOR 103 WK); “inactive; negative” (Species: RAT, Strain/Sex: F344/FEMALE, Route: GAVAGE, Dose: 0, 60, 120 MG/KG BODY WT IN CORN OIL 5 D/WK FOR 103 WK, Dose: 0, 60, 120 MG/KG BODY WT IN CORN OIL 5 D/WK FOR 103 WK); “inactive; negative” (Species: RAT, Strain/Sex: F344/MALE, Route: GAVAGE, Dose: 0, 60, 120 MG/KG BODY WT IN CORN OIL 5 D/WK FOR 103 WK, Dose: 0, 60, 120 MG/KG BODY WT IN CORN OIL 5 D/WK FOR 103 WK).

The values are drawn from PubChem BioAssay AID1259411 (Chemical Carcinogenesis Research Information System (CCRIS), 2018).
